Experimental data from patent US20220168391A1, “USE OF EPIDERMAL GROWTH FACTOR IN DIABETIC FOOT ULCER TREATMENT” (Centro de Ingeniería Genética y Biotecnología, priority 2019, published 2022).

Columns and labels:
[1] = tested on: patients with DFU; assay: Example 1: intralesional rhEGF in three treatment regimes, granulation, lesion closure and amputations in DFU patients; type: in vivo, human
Procedure: To do so, the reconstitution and dilution of the vial containing the drug was performed with 5 mL of water for injection. The administrations were made until 100% granulation of lesion, the closure of the lesion by grafting, or when a maximum of 8 weeks of treatment was attained.
Patients belonging to group 3 received the drug (75 μg/dose) three times a week, during the first week, by intralesional route. From the second week onward, the treatment continued with a dose of 225 μg, once a week. The treatment period was 8 weeks, although it was shorter if the complete closure of the lesion occurred earlier or if the ulcer reached a size smaller than 1 cm^2.
The formulated product was lyophilized in vials containing 25 μg or 75 μg of the active pharmaceutical ingredient. The composition also contained pharmaceutically acceptable excipients, such as stabilizers and pH regulators.
Patients in all three groups continued receiving conventional therapy, which was performed according to the DFU treatment standards established by the National Angiology Group of Cuba. This consists of: offloading of the lesion, metabolic control of the underlying disease with insulin (which replaces oral hypoglycemic agents), washing of the lesion with saline solution and mild soap substances, debridement, application of sterile dressings with gauze bandage, and antimicrobials, depending on the type of infectious germ present in the lesion.
The area of the DFU and the percentage of granulation were measured by a commercial system created for these purposes (Visitrak™, Smith & Nephew), which consists of grid transparent films and a device to measure the lesion by planimetry. This system has been previously validated (Sugama J, et al. J Clin Nurs 2007; 16 (7): 1265-1269). Using a permanent marker, the tracing of the contours of the lesion and the granulated regions, on the grid transparent film, was conducted.

[2] = Example 2: pharmacokinetic study, rhEGF levels in plasma of DFU patients after intralesional administration (ELISA); type: in vivo, human; details: for Amount of rhEGF remaining in the area of the ulcer: bioavailability analysis; for AUC / t½: intralesional, plasma, immediately after the first administration
Procedure: A pharmacokinetic study was carried out, starting from blood samples taken from 31 patients. […] The most important parameters evaluated were the ‘Area under the Curve’ (AUC) and the half-life time (t½) among others. […] The treatment was performed for 8 weeks, or less time if the ulcer area reached a measure equal or less than 1 cm^2.
For the quantitation of this growth factor, the instructions of the kit manufacturer were followed.

[3] = tested on: patients of DFU with amputation criteria of the affected limb; assay: Example 3: healing of DFU after intralesional rhEGF at different doses, three times a week then once a week, versus three times a week control; type: in vivo, human; details: for Closure of the lesion (%) / Closure of the lesion, number of patients: three times a week then once a week, during follow-up; for Complete granulation response (%) / Complete granulation response, number of patients: at 8 weeks
Procedure: The route of administration was always the intralesional one. […] The doses administered per group were 2.5 μg, 25 μg, 50 μg and 75 μg. Seven patients were incorporated into the group that received 2.5 μg, 10 patients to the group that received the 25 μg dose; 13 patients to the group that received 50 μg and 18 patients in the group of 75 μg.
On the other hand, there was a group of 93 patients who were treated, during the whole period, with the dose of 75 μg three times a week. The period of treatment was 8 weeks.
Patients in all groups continued receiving the conventional therapy, which was performed according to the DFU standard treatment established by the National Angiology Group of Cuba, as summarized in Example 1.

[4] = tested on: DFU patients with no amputation criteria of the limb; assay: Example 4: healing of DFU after intralesional rhEGF once a week plus conventional therapy; type: in vivo, human
Procedure: The intralesional treatment with this growth factor was performed once a week, for 8 weeks, or for less time, if the lesion closed up to a dimension equal to or less than 1 cm^2. Another group of patients received conventional therapy only, with the difference that the procedure was performed three times a week, until the complete closure of the lesion was achieved.
The patients in these series had no amputation criteria of the limb affected by the DFU at the time of the initial evaluation. […] As mentioned before, conventional therapy in all patients was performed according to the standards of treatment for DFU established by the National Angiology Group of Cuba.

[5] = tested on: patients with DFU; assay: Example 5: case reports, injectable rhEGF once a week in DFU patients with no criteria for amputation; type: in vivo, human; details: 75 μg once a week for two weeks
From the text: The size of the lesion, after debridement, was 10 cm^2.
The ulcer base was covered with more than 75% of useful granulation tissue. The ulcer size was 7 cm^2.

[6] = tested on: DFU; details: approved lyophilized medicament, intralesional; highest reduction in less complicated ulcers; cited from earlier work
[7] = Group 1: 75 μg/dose three times a week, n = 45
[8] = Group 2: 25 μg/dose three times a week intralesional, n = 45, at 3 weeks
[9] = Group 2: 25 μg/dose three times a week, n = 45
[10] = Group 2: 25 μg/dose three times a week, n = 45, end of treatment
[11] = Group 3: 75 μg three times a week first week, then 225 μg once a week, n = 25
[12] = Group 3: 75 μg three times a week first week, then 225 μg once a week, n = 25, end of treatment
[13] = Group 3: 75 μg three times a week in first week, then 225 μg once a week, n = 25, at 3 weeks
[14] = 25 μg three times a week then once a week, n = 10
[15] = 50 μg three times a week then once a week, n = 13, at 3 weeks
[16] = 75 μg three times a week then once a week, n = 18
[17] = Control Group: 75 μg three times a week for 8 weeks, n = 93, at 3 weeks
[18] = Control Group: 75 μg three times a week for 8 weeks, n = 93
[19] = 2.5 μg once a week plus conventional therapy, n = 10, between 8 and 12 weeks
[20] = 25 μg once a week plus conventional therapy, n = 15, between 8 and 12 weeks
[21] = 50 μg once a week plus conventional therapy, n = 15, between 8 and 12 weeks
[22] = 75 μg once a week plus conventional therapy, n = 20, between 8 and 12 weeks

recombinant human Epidermal Growth Factor [rhEGF]
Granulation Objective Response CR*+PR* (%) ([1]; Group 1: 75 μg/dose three times a week intralesional, n = 45, at 3 weeks): 75% | Granulation Objective Response CR*+PR*, number of patients ([1]; Group 1: 75 μg/dose three times a week intralesional, n = 45, at 3 weeks (>50% of lesion area covered by granulation tissue)): 34 | Amputations, number of patients [1, 7]: 6 | Lesion Closure, number of patients [1, 7]: 34 | Granulation Complete Response CR (%) ([1]; Group 1: 75 μg/dose three times a week, n = 45, end of treatment): 80% | Granulation Complete Response CR, number of patients ([1]; Group 1: 75 μg/dose three times a week, n = 45, end of treatment (100% of lesion area granulated)): 36 | Granulation Objective Response CR*+PR* (%) [1, 8]: 64% | Granulation Objective Response CR*+PR*, number of patients [1, 8]: 29 | Amputations (%) [1, 9]: 22% | Lesion Closure, number of patients [1, 9]: 27 | Granulation Complete Response CR (%) [1, 10]: 69% | Granulation Complete Response CR, number of patients [1, 10]: 31 | Amputations, number of patients [1, 11]: 3 | Lesion Closure, number of patients [1, 11]: 18 | Granulation Complete Response CR (%) [1, 12]: 76% | Granulation Complete Response CR, number of patients [1, 12]: 19 | Granulation Objective Response CR*+PR* (%) [1, 13]: 68% | Granulation Objective Response CR*+PR*, number of patients [1, 13]: 17 | Amount of rhEGF remaining in the area of the ulcer ([2]; 25 μg dose): about 19 μg | AUC ([2]; 25 μg dose): 0.0851 ± 0.0502 ng·h/mL | t½ ([2]; 25 μg dose): 51 ± 46.8 min | Amount of rhEGF remaining in the area of the ulcer ([2]; 75 μg dose): ~58 µg | AUC ([2]; 75 μg dose): 0.1978 ± 0.0739 ng·h/mL | t½ ([2]; 75 μg dose): 39.6 ± 10.8 min | Amount of rhEGF remaining in the area of the ulcer ([2]; 225 μg dose): around 63 μg | AUC ([2]; 225 μg dose): 0.2886 ± 0.0894 ng·h/mL | t½ ([2]; 225 μg dose): 45 ± 12.6 min | Plasma rhEGF value after two hours of sample collection ([2]; independently of the dose received (25, 75, 225 μg)): returned to baseline levels | Closure of the lesion (%) ([3]; 2.5 μg group): 57% | Closure of the lesion, number of patients ([3]; 2.5 μg group): 4 | Objective granulation response (%) ([3]; 2.5 μg three times a week then once a week, n = 7, at 3 weeks): (57%) | Complete granulation response (%) ([3]; 2.5 μg three times a week then once a week, n = 7): (71%) | Objective granulation response, number of patients ([3]; 2.5 μg three times a week until no amputation criterion, then once a week, n = 7, ≥75% of lesion area granulated at 3 weeks): 4 | Objective granulation response, number of patients ([3]; 25 μg three times a week then once a week, n = 10, at 3 weeks): 6 | Complete granulation response (%) [3, 14]: (70%) | Complete granulation response, number of patients [3, 14]: 7 | Closure of the lesion (%) ([3]; 50 μg group): 69% | Closure of the lesion, number of patients ([3]; 50 μg group): 9 | Objective granulation response (%) [3, 15]: (61%) | Objective granulation response, number of patients [3, 15]: 8 | Complete granulation response (%) ([3]; 50 μg three times a week then once a week, n = 13): (77%) | Closure of the lesion (%) ([3]; 75 μg group): 72% | Objective granulation response (%) ([3]; 75 μg three times a week then once a week, n = 18, at 3 weeks): (72%) | Complete granulation response (%) [3, 16]: (83%) | Complete granulation response, number of patients [3, 16]: 15 | Objective granulation response (%) [3, 17]: (77%) | Objective granulation response, number of patients [3, 17]: 72 | Complete granulation response (%) [3, 18]: (85%) | Complete granulation response, number of patients [3, 18]: 79 | Closure of the lesion (% of the patients) ([3]; control group, 75 μg three administrations per week): 81% | Reduction in the risk of amputation ([3]; new treatment schedule (three times a week then once a week) along with conventional therapy): more than 80% | Amputations ([3]; the four groups that differed in the rhEGF dose and the control group): below 12% | Closure of the Lesion No (%) [4, 19]: (40%) | Closure of the Lesion No, number of patients [4, 19]: 4 | Closure of the Lesion Yes, number of patients ([4]; 2.5 μg once a week plus conventional therapy, n = 10, between 8 and 12 weeks after commencement): 6 | Closure of the Lesion No (%) [4, 20]: (33%) | Closure of the Lesion Yes (%) [4, 20]: (67%) | Closure of the Lesion No (%) [4, 21]: (40%) | Closure of the Lesion No, number of patients [4, 21]: 6 | Closure of the Lesion Yes, number of patients [4, 21]: 9 | Closure of the Lesion No, number of patients [4, 22]: 4 | Closure of the Lesion Yes (%) [4, 22]: (80%) | Closure of the Lesion Yes, number of patients [4, 22]: 16 | Lesion closure, Patient A ([5]; Patient A, 10 cm^2 superficial lesion, after said time): complete closure of the lesion was attained | Time to closure of the lesion after the first application, Patient B ([5]; Patient B, 7 cm^2 deep lesion): 9 weeks | Granulation response, Patient B ([5]; Patient B, 7 cm^2 deep lesion, after said time): complete granulation response was obtained | Reduction of amputation rates [6]: ≥ 70%
